Experimental data: the OligoGym collection
Bases are written 5' to 3'; sugars and linkages follow in the same order, as letters with counts (s phosphorothioate, o phosphodiester; PS: all linkages phosphorothioate). C may stand for cytosine or 5-methylcytosine; the collection does not tell. l = locked nucleic acid (LNA); d = 2'-deoxy (DNA)

molecular target: HIF1A; assay: HeLa, 100 nM transfected, 24 h, mean of 3; details: ASO

Sequence | caspase activation (% of PBS control)
GTTACTGCCTTCTTAC (sugars l2 d9 l1 d2 l2, PS) | 120
TGGCAAGCATCCTGTA (sugars l2 d2 l1 d8 l3, PS) | 397
TGGCAAGCATCCTGTA (sugars l3 d9 l4, PS) | 582
GTTACTGCCTTCT (sugars ldllddddddldl, PS) | 156
GTTACTGCCTTCTTAC (sugars l5 d6 l5, PS) | 624
GTTACTGCCTTCTTAC (sugars ldldlddddddllldl, PS) | 354
TGGCAAGCATCCTGTA (sugars l1 d3 l1 d9 l2, PS) | 135
TGGCAAGCATCCTGTA (sugars lldlldddddddldll, PS) | 454
TGGCAAGCATCCTGTA (sugars lddldddddddllddl, PS) | 314
TGGCAAGCATCCTGTA (sugars l5 d6 l2 d1 l2, PS) | 367
TGGCAAGCATCCTGTA (sugars l1 d1 l3 d7 l4, PS) | 395
TGGCAAGCATCCTGTA (sugars lddllddddddlddll, PS) | 257
